Laboratory results as given in patent US8084459B2, “Substituted quinazolinones for treating neurological conditions” (Prana Biotechnology Ltd, priority 2004, dated 2011).

Tests used:
[1] = Assay 3(d) test compound cytotoxicity (MTS); type: cell-based; details: BL6Jx129sv, mouse, primary cortical neuronal cultures, cortical neurons; for viability at 4 days, 1 µM: read-out: Assay 3(d) Cytotoxicity (% viable at 1 uM); for viability at 4 days, 10 µM: read-out: Assay 3(d) Cytotoxicity (% viable at 10 uM)
In short: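 E14 mouse (BL6Jx129sv) primary cortical neurons cultured 5 days, then exposed on day 6 to compound prediluted in Neurobasal/B27 without antioxidants, working solutions 2.5, 25, 250 uM, in triplicate for 4 days at 37 °C. Viability by MTS, 2 h at 37 °C, absorbance 560 nm.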

[2] = Assay 16 mouse plasma levels of test compounds; type: in vivo; details: for Conc. in mouse plasma / concentration at 30 min / concentration at 60 min: single mouse; for Assay 16 Mice plasma concentration: highest level found in mice (Up to), oral dosing 30 mg/kg described for PB 1075-1077; for concentration at 30 min / concentration at 60 min: mouse, plasma, po, 30 mg/kg, read-out: Conc. in mouse plasma
Description: Assay 16. Determination of Mouse Plasma Levels of Test Compounds PB 1075
(§1) Oral administration of PB 1075 at 30 mg/kg, as a suspension in Na-Carboxymethyl Cellulose (CMC) was administered by oral gavage to four mice. Two mice were sacrificed 30 minutes after administration and two mice were sacrificed 60 minutes after administration. Blood was obtained by cardiac puncture and plasma separated by centrifugation.
The concentration of PB 1075 was determined by LC/MS using the triple quadrupole instrument. The mobile phase consisted of an acetonitrile (ACN)/water gradient (containing 0.05% Formic acid) and the column was a Phenomenex Lunea 5 um C8 (50×2 mm) column.
The supplied acute toxicity mouse plasma samples were directly injected following a protein precipitation with ACN. The analytical method in plasma was linear in the range of 10 to 10,000 ng/ml (R^2=0.994). Recovery of PB 1075 from plasma was ˜100%.
as §1, with “1076” for “1075”
The concentration of PB 1076 was determined by LC/MS using the triple quadrupole instrument. The mobile phase consisted of an acetonitrile (ACN)/water gradient (containing 0.05% Formic acid) and the column was a Phenomenex Luna 5 μM C8 (50×2 mm) column.
The mouse plasma samples were directly injected following a protein precipitation with ACN. The analytical method in plasma was linear in the range of 500 to 10,000 ng/ml (R^2=0.999). Recovery of PB 1076 from plasma was ˜85%.
as §1, with “1077” for “1075”
The concentration of PB 1077 was determined by LC/MS using the triple quadrupole instrument. The mobile phase consisted of an acetonitrile (ACN)/water gradient (containing 0.05% Formic acid) and the column was a Phenomenex Luna 5 μM C8 (50×2 mm) column.
The mouse plasma samples were directly injected following a protein precipitation with ACN. The analytical method in plasma was linear in the range of 5 to 5,000 ng/ml (R^2=0.999). Recovery of PB 1077 from plasma was ˜92%.

[3] = 30 min after oral dosing at 30 mg/kg
[4] = 60 min after oral dosing at 30 mg/kg

## O=c1c2c(Cl)cc(Cl)c(O)c2ncn1CCN1CCCC1 [Compound 1075]
[1]
  viability at 4 days, 1 µM: 99%
  viability at 4 days, 10 µM: 87%
[2]; 30 min after oral dosing at 30 mg/kg, listed as PB 1075, 30 mg/kg
  Conc. in mouse plasma: 298.46 ng/mL
[2]; 60 min after oral dosing at 30 mg/kg, listed as PB 1075, 30 mg/kg
  Conc. in mouse plasma: 424.81 ng/mL
[2]
  Assay 16 Mice plasma concentration: Up to 520 ng/mL
[2]; [3]
  concentration at 30 min: 431 ng/mL
[2]; [4]
  concentration at 60 min: 520 ng/mL

## O=c1c2c(Cl)cc(Cl)c(O)c2ncn1Cc1ccccn1 [Compound 1077]
[1]
  viability at 4 days, 1 µM: 101%
  viability at 4 days, 10 µM: 86%
[2]; 30 min after oral dosing at 30 mg/kg, listed as PB 1077, 30 mg/kg
  Conc. in mouse plasma: 984.7 ng/mL
[2]; 60 min after oral dosing at 30 mg/kg, listed as PB 1077, 30 mg/kg
  Conc. in mouse plasma: 752.8 ng/mL
[2]
  Assay 16 Mice plasma concentration: Up to 984 ng/mL
[2]; [3]
  concentration at 30 min: 731 ng/mL
[2]; [4]
  concentration at 60 min: 495 ng/mL

## Cc1nc(Cn2cnc3c(O)c(Cl)cc(Cl)c3c2=O)cs1 [Compound 1084]
[1]
  viability at 4 days, 1 µM: 100%
  viability at 4 days, 10 µM: 93%
[2]
  Assay 16 Mice plasma concentration: Upto 2439 ng/mL

## Cc1noc(C)c1Cn1cnc2c(O)c(Cl)cc(Cl)c2c1=O [Compound 1085]
[1]
  viability at 4 days, 1 µM: 99%
  viability at 4 days, 10 µM: 72%
[2]
  Assay 16 Mice plasma concentration: Upto 3644 ng/mL

## Br.CCCn1cnc2c(O)c(Cl)cc(Cl)c2c1=O [Compound 1097]
[1]
  viability at 4 days, 1 µM: 99%
  viability at 4 days, 10 µM: 78%
[2]
  Assay 16 Mice plasma concentration: Upto 261 ng/mL in
